Experimental data published in PubChem BioAssay AID1259407 (Chemical Carcinogenesis Research Information System (CCRIS), 2018).
Activity calls are given as the source filed them. No rule for the calls is given here.

Test system: CCRIS mutagenicity, Ames/micronucleus/aberration tests
Assay: CCRIS mutagenicity studies
[1] = Test System: AMES SALMONELLA TYPHIMURIUM, Strain/Indicator: TA98, Metabolic Activation: NONE, Method: STANDARD PLATE
[2] = Test System: AMES SALMONELLA TYPHIMURIUM, Strain/Indicator: TA98, Metabolic Activation: RAT, LIVER, S-9, AROCLOR 1254, Method: STANDARD PLATE
[3] = Test System: AMES SALMONELLA TYPHIMURIUM, Strain/Indicator: TA100, Metabolic Activation: NONE, Method: STANDARD PLATE
[4] = Test System: AMES SALMONELLA TYPHIMURIUM, Strain/Indicator: TA100, Metabolic Activation: RAT, LIVER, S-9, AROCLOR 1254, Method: STANDARD PLATE
[5] = Test System: AMES SALMONELLA TYPHIMURIUM, Strain/Indicator: TA1535, Metabolic Activation: NONE, Method: STANDARD PLATE
[6] = Test System: AMES SALMONELLA TYPHIMURIUM, Strain/Indicator: TA1535, Metabolic Activation: RAT, LIVER, S-9, AROCLOR 1254, Method: STANDARD PLATE
[7] = Test System: AMES SALMONELLA TYPHIMURIUM, Strain/Indicator: TA1537, Metabolic Activation: NONE, Method: STANDARD PLATE
[8] = Test System: AMES SALMONELLA TYPHIMURIUM, Strain/Indicator: TA1537, Metabolic Activation: RAT, LIVER, S-9, AROCLOR 1254, Method: STANDARD PLATE
[9] = Test System: AMES SALMONELLA TYPHIMURIUM, Strain/Indicator: TA1538, Metabolic Activation: NONE, Method: STANDARD PLATE
[10] = Test System: AMES SALMONELLA TYPHIMURIUM, Strain/Indicator: TA1538, Metabolic Activation: RAT, LIVER, S-9, AROCLOR 1254, Method: STANDARD PLATE
[11] = Test System: AMES SALMONELLA TYPHIMURIUM, Strain/Indicator: TA98, Metabolic Activation: S-9, Method: STANDARD PLATE
[12] = Test System: AMES SALMONELLA TYPHIMURIUM, Strain/Indicator: TA100, Metabolic Activation: S-9, Method: STANDARD PLATE
[13] = Test System: AMES SALMONELLA TYPHIMURIUM, Strain/Indicator: TA98, Metabolic Activation: NONE, Method: PREINCUBATION
[14] = Test System: AMES SALMONELLA TYPHIMURIUM, Strain/Indicator: TA100, Metabolic Activation: NONE, Method: PREINCUBATION

For `Cc1cc(N)c(C)cc1N`, the mutagenic call [1] was “inactive; negative”, the mutagenic call [2] was “active; positive” and the mutagenic call [3] was “inactive; negative”. For the same compound, the mutagenic call [4] was “inactive; negative”, the mutagenic call [5] was “inactive; negative” and the mutagenic call [6] was “inactive; negative”. For the same compound, the mutagenic call [7] was “inactive; negative”, the mutagenic call [8] was “inactive; negative” and the mutagenic call [9] was “inactive; negative”. For the same compound, the mutagenic call [10] was “inactive; negative”.

For `c1ccc2sc(SNC3CCCCC3)nc2c1`, the mutagenic call [1] was “inactive; negative”, the mutagenic call [11] was “inactive; negative” and the mutagenic call [3] was “inactive; negative”. For the same compound, the mutagenic call [12] was “inactive; negative”.

With `O=PO.O=PO.[Mn+2]` the mutagenic call [1] was “inactive; negative”, the mutagenic call [2] was “inactive; negative” and the mutagenic call [3] was “inactive; negative”. The mutagenic call [4] was “inactive; negative”, the mutagenic call [5] was “inactive; negative” and the mutagenic call [6] was “inactive; negative”. For the same compound, the mutagenic call [7] was “inactive; negative”, the mutagenic call [8] was “inactive; negative” and the mutagenic call [9] was “inactive; negative”. For the same compound, the mutagenic call [10] was “inactive; negative”, the mutagenic call (Test System: E. COLI, Strain/Indicator: WP2, Metabolic Activation: NONE, Method: STANDARD PLATE) was “inactive; negative” and the mutagenic call (Test System: E. COLI, Strain/Indicator: WP2, Metabolic Activation: RAT, LIVER, S-9, AROCLOR 1254, Method: STANDARD PLATE) was “inactive; negative”.

`O=[N+]([O-])c1ccc(Oc2c(Cl)cc(Cl)cc2Cl)cc1` was tested, and the mutagenic call [13] was “inactive; negative”, the mutagenic call [1] was “inactive; negative” and the mutagenic call (Test System: AMES SALMONELLA TYPHIMURIUM, Strain/Indicator: TA98, Metabolic Activation: RAT LIVER S-9 (10%), PHENOBARBITAL AND 5,6-BENZOFLAVONE, Method: PREINCUBATION) was “inactive; negative”. For the same compound, the mutagenic call [11] was “inactive; negative”, the mutagenic call [14] was “inactive; negative” and the mutagenic call [3] was “inactive; negative”. The mutagenic call (Test System: AMES SALMONELLA TYPHIMURIUM, Strain/Indicator: TA100, Metabolic Activation: RAT LIVER S-9 (10%), PHENOBARBITAL AND 5,6-BENZOFLAVONE, Method: PREINCUBATION) was “inactive; negative”, the mutagenic call [12] was “inactive; negative” and the mutagenic call (Test System: AMES SALMONELLA TYPHIMURIUM, Strain/Indicator: YG1021, Metabolic Activation: NONE, Method: STANDARD PLATE) was “inactive; negative”. For the same compound, the mutagenic call (Test System: AMES SALMONELLA TYPHIMURIUM, Strain/Indicator: YG1021, Metabolic Activation: RAT LIVER S-9 (10%), PHENOBARBITAL AND 5,6-BENZOFLAVONE, Method: PREINCUBATION) was “inactive; negative”, the mutagenic call (Test System: AMES SALMONELLA TYPHIMURIUM, Strain/Indicator: YG1021, Metabolic Activation: RAT, LIVER, S-9, PCB, Method: PREINCUBATION) was “active; positive” and the mutagenic call (Test System: AMES SALMONELLA TYPHIMURIUM, Strain/Indicator: YG1021, Metabolic Activation: S-9, Method: STANDARD PLATE) was “inactive; negative”. For the same compound, the mutagenic call (Test System: AMES SALMONELLA TYPHIMURIUM, Strain/Indicator: YG1024, Metabolic Activation: NONE, Method: PREINCUBATION) was “active; positive”, the mutagenic call (Test System: AMES SALMONELLA TYPHIMURIUM, Strain/Indicator: YG1024, Metabolic Activation: NONE, Method: STANDARD PLATE) was “inactive; negative” and the mutagenic call (Test System: AMES SALMONELLA TYPHIMURIUM, Strain/Indicator: YG1024, Metabolic Activation: RAT LIVER S-9 (10%), PHENOBARBITAL AND 5,6-BENZOFLAVONE, Method: PREINCUBATION) was “active; positive”. The mutagenic call (Test System: AMES SALMONELLA TYPHIMURIUM, Strain/Indicator: YG1024, Metabolic Activation: RAT, LIVER, S-9, PHENOBARBITAL AND 5,6-BENZOFLAVONE, Method: PREINCUBATION) was “active; positive”, the mutagenic call (Test System: AMES SALMONELLA TYPHIMURIUM, Strain/Indicator: YG1024, Metabolic Activation: S-9, Method: STANDARD PLATE) was “inactive; negative” and the mutagenic call (Test System: AMES SALMONELLA TYPHIMURIUM, Strain/Indicator: YG1026, Metabolic Activation: NONE, Method: STANDARD PLATE) was “inactive; negative”. For the same compound, the mutagenic call (Test System: AMES SALMONELLA TYPHIMURIUM, Strain/Indicator: YG1026, Metabolic Activation: RAT LIVER S-9 (10%), PHENOBARBITAL AND 5,6-BENZOFLAVONE, Method: PREINCUBATION) was “inactive; negative”, the mutagenic call (Test System: AMES SALMONELLA TYPHIMURIUM, Strain/Indicator: YG1026, Metabolic Activation: RAT, LIVER, S-9, PCB, Method: PREINCUBATION) was “active; positive” and the mutagenic call (Test System: AMES SALMONELLA TYPHIMURIUM, Strain/Indicator: YG1026, Metabolic Activation: S-9, Method: STANDARD PLATE) was “inactive; negative”. For the same compound, the mutagenic call (Test System: AMES SALMONELLA TYPHIMURIUM, Strain/Indicator: YG1029, Metabolic Activation: NONE, Method: PREINCUBATION) was “inactive; negative”, the mutagenic call (Test System: AMES SALMONELLA TYPHIMURIUM, Strain/Indicator: YG1029, Metabolic Activation: NONE, Method: STANDARD PLATE) was “active; positive” and the mutagenic call (Test System: AMES SALMONELLA TYPHIMURIUM, Strain/Indicator: YG1029, Metabolic Activation: RAT LIVER S-9 (10%), PHENOBARBITAL AND 5,6-BENZOFLAVONE, Method: PREINCUBATION) was “active; positive”. For the same compound, the mutagenic call (Test System: AMES SALMONELLA TYPHIMURIUM, Strain/Indicator: YG1029, Metabolic Activation: RAT, LIVER, S-9, AROCLOR 1254, Method: STANDARD PLATE) was “active; positive”, the mutagenic call (Test System: AMES SALMONELLA TYPHIMURIUM, Strain/Indicator: YG1029, Metabolic Activation: RAT, LIVER, S-9, PHENOBARBITAL AND 5,6-BENZOFLAVONE, Method: PREINCUBATION) was “active; positive” and the mutagenic call (Test System: AMES SALMONELLA TYPHIMURIUM, Strain/Indicator: YG1029, Metabolic Activation: S-9, Method: STANDARD PLATE) was “active; positive”.

In the case of `Oc1ccc2cc3ccc4cccc5ccc(c2c1)c3c45`, the mutagenic call (Test System: AMES SALMONELLA TYPHIMURIUM, Strain/Indicator: TA98, Metabolic Activation: RAT, LIVER, 3-METHYLCHOLANTHRENE, Method: LIQUID SUSPENSION) is reported as “active; positive”, the mutagenic call (Test System: AMES SALMONELLA TYPHIMURIUM, Strain/Indicator: TA1538, Metabolic Activation: RAT, LIVER, 3-METHYLCHOLANTHRENE, Method: LIQUID SUSPENSION) is reported as “active; positive” and the mutagenic call (Test System: CHINESE HAMSTER V-79, Strain/Indicator: V-79/OUABAIN, Metabolic Activation: NONE, Method: STANDARD PLATE) is reported as “active; positive”.

With `Cc1ccc2c(c1)C(=O)c1cc(O)ccc1C2=O` the mutagenic call [13] was “inactive; negative”, the mutagenic call (Test System: AMES SALMONELLA TYPHIMURIUM, Strain/Indicator: TA98, Metabolic Activation: RAT, LIVER, S-9, PCB, Method: PREINCUBATION) was “active; positive” and the mutagenic call [14] was “active; positive”. The mutagenic call (Test System: AMES SALMONELLA TYPHIMURIUM, Strain/Indicator: TA100, Metabolic Activation: RAT, LIVER, S-9, PCB, Method: PREINCUBATION) was “active; positive”.
